# Assay results published in doi:10.1101/2023.08.28.23294750v1 (medrxiv, 2023).
# Target: T1, SARS-CoV-2 3CL^pro (Severe acute respiratory syndrome coronavirus 2, UniProt P0DTD1)
# Test: FRET assay, fluorogenic peptide cleavage
# Assay type: biochemical
# Settings: read-out: % inhibition at 100 μmol/L
row,Structure (SMILES),inhibition at 100 µM [%]
1,"COc1c(O)cc(C(=O)O)cc1O [M42M2, 4-O-methylgallic acid]",< 50
2,"O=C1c2cccc(O)c2C(=O)c2c(O)cc(CO)cc21 [compound 11, aloe-emodin]",< 50
3,"O=C(O)c1cc(O)c(O)c(O)c1 [compound 42, gallic acid]",< 50
4,OCCc1ccc(O)c(O)c1 [hydroxytyrosol],< 50
5,COc1cc([C@H]2OC[C@H]3[C@@H]2CO[C@H]3c2ccc(OC)c(OC)c2)ccc1O [phillygenin],< 50

# Target: T1, SARS-CoV-2 3CL^pro
# Test: FRET assay, fluorogenic peptide cleavage
# Assay type: biochemical
# Settings: not given
row,Structure (SMILES),IC50 [µM]
1,"O=C(O)c1cc(O)c2c(c1)C(=O)c1cccc(O)c1C2=O [compound 3, rhein]",4.6
2,"Cc1c(C(=O)O)c(O)cc2c1C(=O)c1c(O)cccc1C2=O [compound 10, 3,8-dihydroxy-1-methylanthraquinone-2-carboxylic acid]",37.2
